Reference: patent US20250326748A1, “COMPOUNDS AND METHODS FOR MODULATING SPLICING” (REMIX THERAPEUTICS INC., priority 2022, published 2025)
Where a name gives a salt, the structure may show the parent alone. Read-outs that look alike come from different tables or passages of the source.

Columns and labels:
HTT mRNA = experiment: Splicing RT-qPCR assay, HTT canonical (CJ) and alternative (AJ) junction mRNA; assay type: cell-based, human; conditions: Homo sapiens; for IC50: canonical junction mRNA; for AC50: alternative junction mRNA, read-out: HTT AJ (AC50, increase in AJ mRNA)
Summary of the method: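 A673 cells (DMEM, 10% FBS) or K562 cells (IMDM, 10% FBS) were treated for 24 h at 37° C with an 11-point 3-fold dilution series, top dose 10 uM, DMSO ≤0.25%. Canonical and alternative junction mRNA was measured in lysates by one-step RT-qPCR. Normalization used PPIA for A673 and GAPDH or GUSB for K562.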

K562 cells = experiment: Cell viability, Cell Titer Glo 2.0 assay, K562; conditions: 72 hours
HiBiT-tagged MYB protein = experiment: HiBiT protein abundance assay, MYB (K562 HiBiT knock-in); assay type: cell-based, human; conditions: HiBiT knock-in cells, 24 hours
Summary of the method: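 Endogenously HiBiT-tagged K562 knock-in lines treated 24 h at 37 °C with 10-point 3-fold dilutions (top 10 μM final, DMSO ≤0.25%) in IMDM+1% FBS. Lytic Nano-Glo luminescence normalized to DMSO and unmodified K562 controls; four-parameter fit gives 50%-abundance concentration (IC50).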

[1] = 24 h, RT-qPCR, A673 or K562 cells, 24 hours treatment, read-out: HTT CJ (IC50, decrease in CJ mRNA)
[2] = qPCR panel, read-out: HTT CJ (decrease in CJ mRNA levels, IC50)
[3] = RT-qPCR, A673 or K562 cells, 24 hours treatment

Row | IC50 (HTT mRNA; [1]) [µM] | IC50 (HTT mRNA; [2]) [µM] | IC50 (HiBiT-tagged MYB protein) [µM] | Compound | AC50 (HTT mRNA; [3]) [µM] | Effect on Cell Viability, K562 (K562 cells)
1 | 0.1 to 1 | 0.1 to 1 | 0.1 to 1 | Cc1c(O)c(-c2cc(Cl)c3cc(N(C)[C@@H]4CCNC4)cnc3n2)cc2cn(C)nc12.Cl [Compound 293] | 0.1 to 1 | B (100-1000 nM)
2 | 0.1 to 1 | 0.1 to 1 | 0.1 to 1 | CN1CCC[C@@H]2CN(c3cnc4nc(-c5cc6cn(C)nc6c(F)c5O)cc(Cl)c4c3)C[C@@H]21 [Compound 303] | > 10 | B (100-1000 nM)
3 | < 0.1 | < 0.1 | < 0.1 | CCN[C@@H]1CCN(c2cnc3nc(-c4cc5cn(C)nc5cc4O)ccc3c2)C1 [Compound 310, 5-{6-[(3R)-3-(ethylamino)468pyrrolidine-1-yl]-1,8-naphthyridin-2-yl}-2-methylindazol-6-ol hydrochloride] | 0.1 to 1 | B (100-1000 nM)
4 | 0.1 to 1 | 0.1 to 1 | < 0.1 | CN[C@H]1CN(c2cnc3nc(-c4cc5cn(C)nc5c(C)c4O)ccc3c2)C[C@H]1C [Compound 125, 2,7-dimethyl-5-{6-[(3R,4R)-3-methyl-4-(methylamino)379pyrrolidine-1-yl]-1,8-naphthyridin-2-yl}indazol-6-ol] | 0.1 to 1 | A (<100 nM)
5 | 1 to 10 | 1 to 10 | 0.1 to 1 | Cc1c(O)c(-c2ccc3c(C(F)(F)F)c(N4CCNCC4)cnc3n2)cc2cn(C)nc12 [Compound 302, 2,7-dimethyl-5-[6-(piperazin-1-yl)-5-(trifluoromethyl)-1,8-naphthyridin-2-yl]indazol-6-ol] | > 10 | B (100-1000 nM)
6 | 0.1 to 1 | 0.1 to 1 | < 0.1 | CN[C@H]1CCN(c2cnc3nc(-c4cc(C)c5nc(C)cn5n4)cc(Cl)c3c2)C1 [Compound 340] | 0.1 to 1 | B (100-1000 nM)
7 | 1 to 10 | 1 to 10 | 1 to 10 | Cc1cn2nc(-c3cnc4nc(C5CCNCC5)ccc4c3)cc(C)c2n1 [Compound 115, 6-(2,8-dimethylimidazo[1,2-b]pyridazin-6-yl)-2-(piperidin-4-yl)-1,8-naphthyridine] | > 10 | C (1000-9999 nM)
8 | < 0.1 | < 0.1 | < 0.1 | CCNC1CCN(c2cnc3nc(-c4cc5cn(C)nc5c(C)c4O)ccc3c2)C1 (centres unmarked) [Compound 122, 5-{6-[3-(ethylamino)pyrrolidin-1-yl]-1,8-naphthyridin-2-yl}-2,7-dimethylindazol-6-ol] | < 0.1 | A (<100 nM)
9 | 1 to 10 | 1 to 10 | 0.1 to 1 | CN1CCC[C@H]2CN(c3cnc4nc(-c5cc6cn(C)nc6c(F)c5O)cc(Cl)c4c3)C[C@H]21 [Compound 304] | 1 to 10 | B (100-1000 nM)
10 | < 0.1 | < 0.1 | < 0.1 | CCN[C@@H]1CCN(c2cnc3nc(-c4cc5cn(C)nc5cc4O)cc(Cl)c3c2)C1 [Compound 317] | < 0.1 | A (<100 nM)
11 | 0.1 to 1 | 0.1 to 1 | < 0.1 | Cn1cc2cc(-c3ccc4cc(N5CC[C@H](NCC6CC6)C5)cnc4n3)c(O)c(F)c2n1 [Compound 136, 5-{6-[(3S)-3-[(cyclopropylmethyl)amino]326pyrrolidine-1-yl]-1,8-naphthyridin-2-yl}-7-fluoro-2-methylindazol-6-ol] | 0.1 to 1 | A (<100 nM)
12 | > 10 | > 10 | > 10 | CNC(=O)c1cc(-c2cc3cn(C)nc3c(C)c2O)nc2ncc(N3CCNCC3)cc12 [Compound 150, 2-(6-hydroxy-2,7-dimethylindazol-5-yl)-N-methyl-6-(piperazin-1-yl)-1,8-naphthyridine-4-carboxamide] | > 10 | D (greater than 10 μM)
13 | < 0.1 | < 0.1 | < 0.1 | CN[C@H]1CCN(c2cnc3nc(-c4cc5cn(C)nc5c(F)c4O)cc(Cl)c3c2)C1 [Compound 272] | < 0.1 | A (<100 nM)
14 | 0.1 to 1 | 0.1 to 1 | < 0.1 | C[C@H]1CN(c2cnc3nc(-c4cc(F)c5nn(C)cc5c4)cc(Cl)c3c2)CCN1 [Compound 296] | 1 to 10 | A (<100 nM)
15 | 0.1 to 1 | 0.1 to 1 | < 0.1 | CN(c1cnc2nc(-c3cc4cn(C)nc4c(F)c3O)cc(Cl)c2c1)[C@@H]1CCNC1 [Compound 276] | 0.1 to 1 | A (<100 nM)
16 | < 0.1 | < 0.1 | < 0.1 | CN[C@@H]1CCN(c2cnc3nc(-c4cc(C)c5nc(C)cn5n4)cc(Cl)c3c2)C1 [Compound 341] | < 0.1 | A (<100 nM)
17 | < 0.1 | < 0.1 | < 0.1 | CN[C@H]1CCN(c2cnc3nc(-c4cc5cn(C)nc5c(C)c4O)cc(Cl)c3c2)C1.Cl [Compound 287] | 0.1 to 1 | A (<100 nM)
18 | 0.1 to 1 | 0.1 to 1 | < 0.1 | Cc1c(O)c(-c2ccc3cc(N4CCNCC4)cnc3n2)cc2cn(C)nc12 [Compound 137, 2,7-dimethyl-5-[6-(piperazin-1-yl)-1,8-naphthyridin-2-yl]indazol-6-ol] | 0.1 to 1 | B (100-1000 nM)
19 | 0.1 to 1 | 0.1 to 1 | < 0.1 | Cc1c(O)c(-c2cc(Cl)c3cc(NC4CCNC4)cnc3n2)cc2cn(C)nc12 (centres unmarked) [Compound 146, 5-[4-chloro-6-(359pyrrolidine-3-ylamino)-1,8-naphthyridin-2-yl]-2,7-dimethylindazol-6-ol] | 0.1 to 1 | B (100-1000 nM)
20 | > 10 | > 10 | 0.1 to 1 | C[C@@H]1CN(c2cnc3nc(-c4cc(C#N)c5nn(C)cc5c4)cc(Cl)c3c2)C[C@H](C)N1 [Compound 325, 5-(4-chloro-6-((3R,5S)-3,5-dimethylpiperazin-1-yl)-1,8-naphthyridin-2-yl)-2-methyl-2H-indazole-7-carbonitrile 2,2,2-trifluoroacetate] | > 10 | C (1000-9999 nM)
21 | 0.1 to 1 | 0.1 to 1 | < 0.1 | Cc1c(O)c(-c2ccc3cc(N4CCC(NCC5CC5)C4)cnc3n2)cc2cn(C)nc12 (centres unmarked) [Compound 105, 5-(6-{3-[(cyclopropylmethyl)amino]pyrrolidin-1-yl}-1,8-naphthyridin-2-yl)-2,7-dimethylindazol-6-ol] | 0.1 to 1 | A (<100 nM)
22 | 1 to 10 | 1 to 10 | 0.1 to 1 | Cc1cn2cc(-c3cc(Cl)c4cc(N5C[C@@H](C)N[C@@H](C)C5)cnc4n3)cc(F)c2n1 [Compound 297] | 1 to 10 | B (100-1000 nM)
23 | 1 to 10 | 1 to 10 | 0.1 to 1 | CN(C)C1CCN(c2cnc3nc(-c4cc5cn(C)nc5cc4O)ccc3c2)CC1 [Compound 316] | 1 to 10 | B (100-1000 nM)
24 | 0.1 to 1 | 0.1 to 1 | 0.1 to 1 | Cn1cc2cc(-c3ccc4cc(NC5CCNCC5)cnc4n3)c(O)c(F)c2n1 [Compound 285] | 0.1 to 1 | B (100-1000 nM)
25 | 0.1 to 1 | 0.1 to 1 | < 0.1 | Cc1c(O)c(-c2ccc3cc(N4CCC(N(C)C)CC4)cnc3n2)cc2cn(C)nc12 [Compound 138, 5-{6-[4-(dimethylamino)piperidin-1-yl]-1,8-naphthyridin-2-yl}-2,7-dimethylindazol-6-ol] | 1 to 10 | A (<100 nM)
26 | 0.1 to 1 | 0.1 to 1 | < 0.1 | Cc1cn2nc(-c3ccc4c(Cl)c(N5C[C@H](C)N[C@@H](C)C5)cnc4n3)cc(C)c2n1 [Compound 393, 5-chloro-2-{2,8-dimethylimidazo[1,2-b]pyridazin-6-yl}-6-[(3S,5S)-3,5-dimethylpiperazin-1-yl]-1,8-naphthyridine] | 0.1 to 1 | B (100-1000 nM)
27 | 0.1 to 1 | 0.1 to 1 | < 0.1 | CCN[C@H]1CCN(c2cnc3nc(-c4cc5cn(C)nc5cc4O)cc(Cl)c3c2)C1 [Compound 318] | 1 to 10 | A (<100 nM)
28 | < 0.1 | < 0.1 | < 0.1 | Cn1cc2cc(-c3ccc4cc(N5CC[C@@H](NCC6CC6)C5)cnc4n3)c(O)c(F)c2n1 [Compound 135, 5-{6-[(3R)-3-[(cyclopropylmethyl)amino]330pyrrolidine-1-yl]-1,8-naphthyridin-2-yl}-7-fluoro-2-methylindazol-6-ol] | < 0.1 | A (<100 nM)
